This assay deals with T1, human vasopressin V1a receptor subtype (Homo sapiens, UniProt P37288).
T1 construct: host or cells: CHO cells (pZeoSV vector for the Thibonnier line)
Description: Vasopressin binding in Chinese Hamster Ovary cell membranes expressing human vasopressin V1a subtype receptors. The following applies: 100 nM, CHO cell membranes, [3H]Manning ligand, values without parentheses. A digest of the protocol:
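Membranes from CHO cells expressing human V1a receptor were incubated with [3H]Manning ligand (added as 20 μL of 8 nM) in pH 7.4 Tris buffer with MgCl2, BSA and protease inhibitors, 60 min at room temperature. Bound radioactivity was counted after filtration; values are percent inhibition at a stated concentration or IC50.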

T1 sequence (P37288 whole entry): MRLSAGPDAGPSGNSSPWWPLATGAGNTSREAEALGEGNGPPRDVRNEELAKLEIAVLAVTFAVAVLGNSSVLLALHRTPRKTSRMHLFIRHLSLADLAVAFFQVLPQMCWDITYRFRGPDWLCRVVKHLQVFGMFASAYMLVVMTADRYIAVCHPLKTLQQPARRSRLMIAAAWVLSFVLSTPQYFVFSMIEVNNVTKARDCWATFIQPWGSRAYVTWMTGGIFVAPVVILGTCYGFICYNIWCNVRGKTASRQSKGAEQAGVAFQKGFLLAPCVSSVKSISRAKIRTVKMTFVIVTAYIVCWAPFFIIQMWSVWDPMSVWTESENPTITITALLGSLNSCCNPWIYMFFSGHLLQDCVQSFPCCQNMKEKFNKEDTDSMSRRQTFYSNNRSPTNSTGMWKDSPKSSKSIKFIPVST

A word on the inhibition: it is the relative decrease from the control value, in per cent. `COc1cccc(-c2ccc(C(=O)N3Cc4ccc(C(=O)NCCC5CCCN5C)n4Cc4ccccc43)cc2OC)c1` (stereo not drawn) [Example 172, 10-[(2,3′-Dimethoxy[1,1′-biphenyl]-4-yl)carbonyl]-N-[2-(1-methyl-2-pyrrolidinyl)ethyl]-10,11-dihydro-5H-pyrrolo[2,1-c][1,4]benzodiazepine-3-carboxamide]: the inhibition at 0.1 µM was 43%. In the case of `COc1cccc(-c2cc(OC)c(C(=O)N3Cc4ccc(C(=O)NCCN5CCCCC5)n4Cc4ccccc43)cc2Cl)c1` [Example 156, 10-[(6-Chloro-3,3′-dimethoxy[1,1′-biphenyl]-4-yl)carbonyl]-N-[2-(1-piperidinyl)ethyl]-10,11-dihydro-5H-pyrrolo[2,1-c][1,4]benzodiazepine-3-carboxamide], the inhibition at 0.1 µM worked out at 2%.

With `C=CCN1CCN(C(=O)c2ccc3n2Cc2ccccc2N(C(=O)c2ccc(-c4ccccc4OC)c(OC)c2)C3)CC1` [Example 227, (4-Allyl-1-piperazinyl){10-[(2,2′-dimethoxy[1,1′-biphenyl]-4-yl)carbonyl]-10,11-dihydro-5H -pyrrolo[2,1-c][1,4]benzodiazepin-3-yl}methanone], the inhibition at 0.1 µM was 2%. Regarding `COc1ccccc1-c1ccc(C(=O)N2Cc3ccc(C(=O)NCCN4CCCCC4)n3Cc3ccccc32)cc1OC` [Example 158, 10-[(2,2′-Dimethoxy[1,1′-biphenyl]-4-yl)carbonyl]-N-[2-(1-piperidinyl)ethyl]-10,11-dihydro-5H-pyrrolo[2,1-c][1,4]benzodiazepine-3-carboxamide], the inhibition at 0.1 µM amounted to 16%.

On to `COc1cc(-c2ccccc2C)c(Cl)cc1C(=O)N1Cc2ccc(C(=O)N(C)C3CCN(C)C3)n2Cc2ccccc21` (stereo not drawn) [Example 190, 10-[(6-Chloro-3-methoxy-2′-methyl[1,1′-biphenyl]-4-yl)carbonyl]-N-methyl-N-(1-methyl-3-pyrrolidinyl)-10,11-dihydro-5H-pyrrolo[2,1-c][1,4]benzodiazepine-3-carboxamide], for which the inhibition at 0.1 µM was 40%. The figure for `COc1cccc(-c2cc(OC)c(C(=O)N3Cc4ccc(C(=O)N5CCN(CCN(C)C)CC5)n4Cc4ccccc43)cc2Cl)c1` [Example 202, {10-[(6-Chloro-3,3′-dimethoxy[1,1′-biphenyl]-4-yl)carbonyl]-10,11-dihydro-5H-pyrrolo[2,1-c][1,4]benzodiazepin-3-yl}{4-[2-(dimethylamino)ethyl]-1-piperazinyl}methanone] is 2%. With `Cc1ccccc1-c1ccc(C(=O)N2Cc3ccc(C(=O)N(C)C4CCN(C)C4)n3Cc3ccccc32)cc1` (stereo not drawn) [Example 188, N-Methyl-10-[(2′-methyl[1,1′-biphenyl]-4-yl)carbonyl]-N-(1-methyl-3-pyrrolidinyl)-10,11-dihydro-5H-pyrrolo[2,1-c][1,4]benzodiazepine-3-carboxamide], the inhibition at 0.1 µM came to 89%.

In the case of `Cc1ccccc1-c1ccc(C(=O)N2Cc3ccc(C(=O)N(C)C4CCN(C)CC4)n3Cc3ccccc32)cc1` [Example 178, N-Methyl-10-[(2′-methyl[1,1′-biphenyl]-4-yl)carbonyl]-N-(1-methyl-4-piperidinyl)-10,11-dihydro-5H-pyrrolo[2,1-c][1,4]benzodiazepine-3-carboxamide], the inhibition at 0.1 µM stood at 79%. For the molecule `C=CCN1CCN(C(=O)c2ccc3n2Cc2ccccc2N(C(=O)c2ccc(-c4ccccc4C)c(OC)c2)C3)CC1` [Example 225, (4-Allyl-1-piperazinyl){10-[(2-methoxy-2′-methyl[1,1′-biphenyl]-4-yl)carbonyl]-10,11-dihydro-5H-pyrrolo[2,1-c][1,4]benzodiazepin-3-yl}methanone], the inhibition at 0.1 µM was 35%. The figure for `Cc1cc(C(=O)N2Cc3ccc(C(=O)NCCN4CCCCC4)n3Cc3ccccc32)ccc1-c1ccccc1C(F)(F)F` [Example 161, 10-{[2-Methyl-2′-(trifluoromethyl)[1,1′-biphenyl]-4-yl]carbonyl}-N-[2-(1-piperidinyl)ethyl]-10,11-dihydro-5H-pyrrolo[2,1-c][1,4]benzodiazepine-3-carboxamide] is 8%; for `COc1ccccc1-c1ccc(C(=O)N2Cc3ccc(C(=O)N4CCN(CCN5CCOCC5)CC4)n3Cc3ccccc32)cc1OC` [Example 214, {10-[(2,2′-Dimethoxy[1,1′-biphenyl]-4-yl)carbonyl]-10,11-dihydro-5H-pyrrolo[2,1-c][1,4]benzodiazepin-3-yl}{4-[2-(4-morpholinyl)ethyl]-1-piperazinyl}methanone] it is 8%; for `Cc1ccccc1-c1ccc(C(=O)N2Cc3ccc(C(=O)NCCC4CCCN4C)n3Cc3ccccc32)cc1C` (stereo not drawn) [Example 163, 10-[(2,2′-Dimethyl[1,1′-biphenyl]-4-yl)carbonyl]-N-[2-(1-methyl-2-pyrrolidinyl)ethyl]-10,11-dihydro-5H-pyrrolo[2,1-c][1,4]benzodiazepine-3-carboxamide] it is 43%. Turning to `COc1cc(C(=O)N2Cc3ccc(C(=O)NCCC4CCCN4C)n3Cc3ccccc32)ccc1-c1cccc2ccccc12` (stereo not drawn) [Example 170, 10-[3-Methoxy-4-(1-naphthyl)benzoyl]-N-[2-(1-methyl-2-pyrrolidinyl)ethyl]-10,11-dihydro-5H-pyrrolo[2,1-c][1,4]benzodiazepine-3-carboxamide], the inhibition at 0.1 µM amounted to 21%.

`Cc1cc(C(=O)N2Cc3ccc(C(=O)N4CCN(CCN5CCOCC5)CC4)n3Cc3ccccc32)ccc1-c1ccccc1C(F)(F)F` [Example 216, (10-{[2-Methyl-2′-(trifluoromethyl)[1,1′-biphenyl]-4-yl]carbonyl}-10,11-dihydro-5H -pyrrolo[2,1-c][1,4]benzodiazepin-3-yl){4-[2-(4-morpholinyl)ethyl]-1-piperazinyl}methanone]: the inhibition at 0.1 µM stood at 10%. On to `C=CCN1CCN(C(=O)c2ccc3n2Cc2ccccc2N(C(=O)c2ccc(-c4ccccc4C)cc2)C3)CC1` [Example 224, (4-Allyl-1-piperazinyl){10-[(2′-methyl[1,1′-biphenyl]-4-yl)carbonyl]-10,11-dihydro-5H -pyrrolo[2,1-c][1,4]benzodiazepin-3-yl}methanone], for which the inhibition at 0.1 µM turned out to be 1%.

Consider `COc1cc(C(=O)N2Cc3ccc(C(=O)N(C)C4CCN(C)CC4)n3Cc3ccccc32)ccc1-c1ccccc1C` [Example 179, 10-[(2-Methoxy-2′-methyl[1,1′-biphenyl]-4-yl)carbonyl]-N-methyl-N-(1-methyl-4-piperidinyl)-10,11-dihydro-5H-pyrrolo[2,1-c][1,4]benzodiazepine-3-carboxamide], for which the inhibition at 0.1 µM came to 73%. On to `COc1ccccc1-c1ccc(C(=O)N2Cc3ccc(C(=O)N(C)C4CCN(C)CC4)n3Cc3ccccc32)cc1OC` [Example 183, 10-[(2,2′-Dimethoxy[1,1′-biphenyl]-4-yl)carbonyl]-N-methyl-N-(1-methyl-4-piperidinyl)-10,11-dihydro-5H-pyrrolo[2,1-c][1,4]benzodiazepine-3-carboxamide], for which the inhibition at 0.1 µM is 26%.

As for `Cc1cc(C(=O)N2Cc3ccc(C(=O)N4CCN(C(=O)OC(C)(C)C)CC4)n3Cc3ccccc32)ccc1-c1ccccc1C(F)(F)F` [Example 6, 4-[[10,11-Dihydro-10-[[2-methyl-2′-trifluoromethyl[1,1′-biphenyl]-4-yl]carbonyl]-5H-pyrrolo[2,1-c][1,4]benzodiazepin-3-yl]carbonyl]-1-piperazine-carboxylic acid, tert-butyl ester], the inhibition at 0.1 µM was determined as 2%. Consider `COc1cccc(-c2ccc(C(=O)N3Cc4ccc(C(=O)N5CCN(C(C)C)CC5)n4Cc4ccccc43)cc2OC)c1` [Example 242, {10-[(2,3′-Dimethoxy[1,1′-biphenyl]-4-yl)carbonyl]-10,11-dihydro-5H-pyrrolo[2,1-c][1,4]benzodiazepin-3-yl}(4-isopropyl-1-piperazinyl)methanone], for which the inhibition at 0.1 µM was found to be 33%.

Turning to `COc1cc(C(=O)N2Cc3ccc(C(=O)N(C)C4CCN(C)CC4)n3Cc3ccccc32)ccc1-c1cccc2ccccc12` [Example 182, 10-[3-Methoxy-4-(1-naphthyl)benzoyl]-N-methyl-N-(1-methyl-4-piperidinyl)-10,11-dihydro-5H-pyrrolo[2,1-c][1,4]benzodiazepine-3-carboxamide], the inhibition at 0.1 µM turned out to be 14%. As to `COc1cc(C(=O)N2Cc3ccc(C(=O)N(C)C4CCN(C)C4)n3Cc3ccccc32)ccc1-c1cccc2ccccc12` (stereo not drawn) [Example 192, 10-[3-Methoxy-4-(1-naphthyl)benzoyl]-N-methyl-N-(1-methyl-3-pyrrolidinyl)-10,11-dihydro-5H-pyrrolo[2,1-c][1,4]benzodiazepine-3-carboxamide], the inhibition at 0.1 µM came to 31%.

Consider `Cc1cc(C(=O)N2Cc3ccc(C(=O)N(C)C4CCN(C)CC4)n3Cc3ccccc32)ccc1-c1ccccc1C(F)(F)F` [Example 184, N-Methyl-N-(1-methyl-4-piperidinyl)-10-{[2-methyl-2′-(trifluoromethyl)[1,1′-biphenyl]-4-yl]carbonyl}-10,11-dihydro-5H-pyrrolo[2,1-c][1,4]benzodiazepine-3-carboxamide], for which the inhibition at 0.1 µM is 0%. Turning to `COc1cccc(-c2cc(OC)c(C(=O)N3Cc4ccc(C(=O)N(C)C5CCN(C)CC5)n4Cc4ccccc43)cc2Cl)c1` [Example 181, 10-[(6-Chloro-3,3′-dimethoxy[1,1′-biphenyl]-4-yl)carbonyl]-N-methyl-N-(1-methyl4-piperidinyl)-10,11-dihydro-5H-pyrrolo[2,1-c][1,4]benzodiazepine-3-carboxamide], the inhibition at 0.1 µM amounted to 23%. Regarding `COc1cccc(-c2cc(OC)c(C(=O)N3Cc4ccc(C(=O)N(C)C5CCN(C)C5)n4Cc4ccccc43)cc2Cl)c1` (stereo not drawn) [Example 191, 10-[(6-Chloro-3,3′-dimethoxy[1,1′-biphenyl]-4-yl)carbonyl]-N-methyl-N-(1-methyl-3-pyrrolidinyl)-10,11-dihydro-5H-pyrrolo[2,1-c][1,4]benzodiazepine-3-carboxamide], the inhibition at 0.1 µM is 41%.
